Measured values taken from patent publication EP0986381B1, “USE OF DITERPENES LIKE HYPOESTOXIDES FOR THE MANUFACTURE OF A MEDICAMENT FOR IMMUNOSUPPRESSION, ANTICANCER AND ANTIVIRAL TREATMENT” (Immune Modulation, Inc., priority 1997, dated 1998).

Columns and labels:
Type in all cases: cell-based
[1] = system: human malignant melanoma (RPMI-7951); assay: Colorimetric MTT cytotoxicity assay, RPMI-7951; settings: RPMI-7951, 72 hours
Description: (§1) The following materials and methods were employed in the non-limiting Examples set out below. Tumor cells: Human cervical epitheloid carcinoma (HeLa), human renal clear cell carcinoma (CAKI-1), human malignant melanoma (RPMI-7951) and mouse malignant melanoma (B16-F1) were procured from ATCC (Rockville, MD) and maintained in vitro with MEM medium (Mediatech, Inc., Herndon, VA) supplemented with 10% heat-inactivated fetal bovine serum (American Qualex, San Clemente, CA), 10mM glutamine, 100 U/ml penicillin, and 100 µg/ml streptomycin (Sigma Chemicals, Saint Louis, MO) (complete medium). […] Cell viability was assessed by trypan blue dye exclusion test and the cell number was adjusted to required concentration. Colorimetric MTT assay: Cytotoxic effects of the hypoestoxide compounds of formulas I and II (JO-4A) were determined in vitro by a colorimetric assay (Mosmann, T., J. Immunol. Methods, 65: 55-63, 1983). […] Mixing with a multichannel pipetter dissolved the dark blue crystals and the absorbance was measured at 545-650 nm using an ELISA plate reader. […] The tumors were measured with a microcaliper, and the tumor volume was calculated by the formula: Length x width x height x 0.5236 (Jungwirth, A. et al., Proc. Natl. Acad. Sci. USA, 94:5810-5813, 1997). […]

[2] = Colorimetric MTT cytotoxicity assay, HMEC; settings: human, read-out: IC50 concentration (cytotoxicity)
[3] = system: normal human peripheral blood mononuclear cells; assay: Colorimetric MTT cytotoxicity assay, normal PBMC; settings: 72 hours
Description: as §1

[4] = system: cultured normal human PBMCs; assay: Toxicity on PHA-activated normal human PBMCs, trypan blue dye exclusion; settings: 0.0001 µM - 0.5 µM, 7 days
Description: PBMCs from two individuals were co-cultured in the presence of varying concentrations of JO-4 for 5 days. […] Cytotoxic T lymphocytes (CTLs) were generated from one-way MLR in the absence or presence of JO-4 for 5-7 days. At the end of culture, CTLs were harvested and tested in a four hour ^51Cr-release assay against activated lymphocytes which were used as stimulators in the one-way MLR. […] Human PBMCs were cultured with 5 µg/ml LPS in the absence or presence of 1.0 µg/ml JO-4 in 24-well microtiter plates for 24 hours. At the end of culture, supernatants were harvested and tested by EIA for the presence of IL-1β, TNF-α, and IL-6. […] PBMCs from two individuals were co-cultured in the absence or presence of varying concentrations of JO-4A for 5 days. […] Antiviral effects of JO-4 on HSV-2 were determined as described in Figure 16A. • Figure 17A and 17B show the results of toxicity testing of JO-4 and JO-4A on normal, uninfected African green monkey kidney cells (CV-1), respectively. […] Cytotoxicity was determined by colorimetric (MTT) assay.
Peripheral Blood Mononuclear cells (PBMCs): Heparinized venous blood was obtained from healthy adult volunteers and PBMCs were separated by centrifugation over Ficoll-Hypaque (Pharmacia Biotech, Piscataway, NJ). […] Cell viability was assessed by trypan blue dye exclusion test and the cell number was adjusted to required concentration.

C=C1C(=O)CC2CC3OC3(C)CCC3OC3(C)CC(O)C1C2(C)C (stereo not shown) [JO-4A]
IC50 [1]: 10 to 12.5 µM | CC50 at 72 h [2]: 25 to 50 µM | cytotoxic effect [3]: no cytotoxic effect | toxic effect on cultured human PBMC [4]: no toxic effect
